This is an account of results in ChEMBL document CHEMBL1136189, “Thiourea inhibitors of herpes viruses. Part 1: bis-(aryl)thiourea inhibitors of CMV” (Bioorg Med Chem Lett, 2003).

Experiment [1] deals with Human alphaherpesvirus 2. The experiment in a line: Inhibitory concentration against Herpes simplex virus (HSV). It is filed as functional, organism-based.
In experiment [2] the test system is Human betaherpesvirus 5. Kind of experiment: Inhibitory concentration against human cytomegalovirus (CMV) in cultured human foreskin fibroblast (HFF) cells. In kind it is functional, organism-based. Conditions: Human betaherpesvirus 5, HFF.
For experiment [3], the system named is Human alphaherpesvirus 3. Kind of experiment: Inhibitory concentration against Varicella zoster virus (VZV). It is filed as functional, organism-based.
Experiment [4] in a line: MTS cellular toxicity was determined. In kind it is functional.

Converted amounts (≈) assume the structure as drawn.

Broadly, the IC50 is the point on the concentration scale where inhibition reaches its midpoint. A higher IC50 goes with a need for much substance.

On to `Cc1ccc(N/C(S)=N/c2ccc(NC(=O)c3ccco3)cc2)cc1Cl`, for which the IC50 in experiment [1] was above 10 µg/mL; in experiment [2] it was 0.09 µg/mL (≈ 0.233 µM); in experiment [3] it was above 10 µg/mL.
For `COc1cc(OC)c(N/C(S)=N/c2ccc(NC(=O)c3ccco3)cc2C)cc1Cl`, the results for the IC50 in experiment [1], in experiment [2] and in experiment [3] were above 10 µg/mL, 0.6 µg/mL (≈ 1.35 µM) and above 10 µg/mL, respectively.
In the case of `O=C(Nc1ccc(/N=C(\S)Nc2ccc(F)c(Cl)c2)cc1)c1ccco1`, the IC50 in experiment [1] is above 10 µg/mL; in experiment [2], 0.06 µg/mL (≈ 0.154 µM); in experiment [3], above 10 µg/mL.
As to `O=C(Nc1ccc(/N=C(\S)Nc2cc(C(F)(F)F)cc(C(F)(F)F)c2)cc1)c1ccco1`, the IC50 was above 10 µg/mL in experiment [1], 0.04 µg/mL (≈ 0.0845 µM) in experiment [2] and 7 µg/mL (≈ 14.8 µM) in experiment [3].
Take `O=C(Nc1ccc(/N=C(\S)Nc2ccc(C(F)(F)F)c(Cl)c2)cc1)c1cocn1`: the IC50 is above 10 µg/mL in experiment [1], 0.02 µg/mL (≈ 0.0454 µM) in experiment [2] and above 10 µg/mL in experiment [3].
For the compound `COc1cc(OC)c(N/C(S)=N/c2cc(OC)c(NC(=O)c3ccco3)cc2OC)cc1Cl`, the half-inhibitory concentration (IC50) is above 10 µg/mL in experiment [1], above 10 µg/mL in experiment [2] and 4 µg/mL (≈ 8.13 µM) in experiment [3].
In experiment [4], `COc1cc(OC)c(N/C(S)=N/c2ccc(NC(C)=O)cc2)cc1Cl` registered an Activity above 10 µg/mL. In addition, the IC50 in experiment [1] was 3 µg/mL (≈ 7.9 µM); in experiment [2] it was 45 µg/mL (≈ 118 µM); in experiment [3], above 10 µg/mL.
In the same order, the values of `COc1cc(OC)c(N/C(S)=N/c2ccc(NC(=O)c3ccccc3)cc2)cc1Cl` are above 10 µg/mL, 0.3 µg/mL (≈ 0.679 µM), 4 µg/mL (≈ 9.05 µM) and above 10 µg/mL.
For the compound `O=C(Nc1ccc(/N=C(\S)Nc2cc(C(F)(F)F)cc(C(F)(F)F)c2)cc1)c1csnn1`, the figures for the IC50 in experiment [1], in experiment [2] and in experiment [3] were above 10 µg/mL, 0.02 µg/mL (≈ 0.0407 µM) and above 10 µg/mL, respectively.
In the case of `O=C(Nc1ccc(/N=C(\S)Nc2ccc(Cl)c(C(F)(F)F)c2)cc1)c1ccco1`, the IC50 in experiment [1] was above 10 µg/mL; in experiment [2], 0.03 µg/mL (≈ 0.0682 µM); in experiment [3] it was above 10 µg/mL.
On to `O=C(Nc1ccc(/N=C(\S)Nc2cccc(C(F)(F)F)c2)cc1)c1ccco1`, for which the 50% inhibitory concentration (IC50) in experiment [1] was above 10 µg/mL; in experiment [2], 0.06 µg/mL (≈ 0.148 µM); in experiment [3], above 10 µg/mL.
In the case of `O=C(Nc1ccc(/N=C(\S)Nc2cc(C(F)(F)F)cc(C(F)(F)F)c2)cc1)c1cocn1`, the IC50 in experiment [1] was above 10 µg/mL; in experiment [2] it was 0.03 µg/mL (≈ 0.0632 µM); in experiment [3], above 10 µg/mL.
Compound `COc1cc(OC)c(N/C(S)=N/c2ccc(NC(=O)c3ccco3)c(C)c2)cc1Cl` had an Activity in experiment [4] above 10 µg/mL. In addition, the IC50 in experiment [1], in experiment [2] and in experiment [3] was above 10 µg/mL in each case.
With `O=C(Nc1ccc(/N=C(\S)Nc2ccc(C(F)(F)F)c(Cl)c2)cc1)c1ccccn1`, the IC50 in experiment [1], in experiment [2] and in experiment [3] was above 10 µg/mL in each case.
Take `O=C(Nc1ccc(NC(=S)Nc2ccccc2)cc1)c1ccco1`: the IC50 was above 10 µg/mL in experiment [1], 0.3 µg/mL (≈ 0.889 µM) in experiment [2] and above 10 µg/mL in experiment [3].
As to `COc1cc(OC)c(N/C(S)=N/c2ccc(NC(=O)c3ccco3)cc2C(F)(F)F)cc1Cl`, in experiment [4], the Activity was above 10 µg/mL. The IC50 was 2.5 µg/mL (≈ 5 µM) in experiment [1], 2 µg/mL (≈ 4 µM) in experiment [2] and above 10 µg/mL in experiment [3].
In the same order, the values of `COc1cc(OC)c(N/C(S)=N/c2ccc(NC(=O)c3ccco3)cc2C#N)cc1Cl` are above 10 µg/mL, above 10 µg/mL, above 10 µg/mL and above 10 µg/mL.
In the same order, the values of `COc1cc(OC)c(N/C(S)=N/c2ccc(NC(=O)c3ccco3)cc2)cc1Cl` are above 10 µg/mL, above 10 µg/mL, 0.2 µg/mL (≈ 0.463 µM) and above 10 µg/mL.
On to `CCC(=O)Nc1ccc(N/C(S)=N/c2cc(Cl)c(OC)cc2OC)cc1`, for which the Activity in experiment [4] is above 10 µg/mL. The half-inhibitory concentration (IC50) is 3 µg/mL (≈ 7.62 µM) in experiment [1] and above 10 µg/mL in experiment [3].
For the compound `Cc1cccc(N/C(S)=N/c2ccc(NC(=O)c3ccco3)cc2)c1`, the figures for the IC50 in experiment [1], in experiment [2] and in experiment [3] were above 10 µg/mL, 0.06 µg/mL (≈ 0.171 µM) and above 10 µg/mL, respectively.
Consider `COc1cc(OC)c(N/C(S)=N/c2ccc(NC(=O)c3ccco3)c(OC)c2)cc1Cl`, for which the IC50 was 8 µg/mL (≈ 17.3 µM) in experiment [1], above 10 µg/mL in experiment [2] and above 10 µg/mL in experiment [3].
For `O=C(Nc1ccc(/N=C(\S)Nc2cc(C(F)(F)F)cc(C(F)(F)F)c2)cc1)c1cscn1`, the IC50 in experiment [1] was above 10 µg/mL; in experiment [2] it was 0.008 µg/mL (≈ 0.0163 µM); in experiment [3], above 10 µg/mL.
Take `O=C(Nc1ccc(/N=C(\S)Nc2ccc(C(F)(F)F)c(Cl)c2)cc1)c1cscn1`: the half-maximal inhibitory concentration (IC50) in experiment [1] is above 10 µg/mL; in experiment [2], 0.006 µg/mL (≈ 0.0131 µM); in experiment [3], above 10 µg/mL.
